From patent publication US20060210528A1, “Therapy for tropical diseases” (Aspire Biotech, Inc., priority 2001, published 2006)

Tested on: plantar warts
Assay: Treatment of plantar warts on a patient's feet with an in situ polymeric film versus freezing
Type: in vivo, human
Protocol: The following examples illustrate how the methods of this invention could be used.
A patient presents to a dermatologist with two similar plantar warts on the soles of their left and right feet. The wart on the right foot is treated by freezing with liquid nitrogen.

## N#N [liquid nitrogen]
Plantar wart on sole of foot
  pain on treated foot: makes walking on the foot painful for several days
Plantar wart on sole of foot, film re-applied every 3-4 days
  time until wart resolves: 3 weeks
Plantar wart, film treatment continued two weeks after resolution
  return of wart after resolution: has returned after two months
